Measurements taken from patent US20260207654A1, “HEPARAN SULFATE AND ITS MIMETICS AS CHEMOKINE INHIBITORS” (INDIAN INSTITUTE OF SCIENCE EDUCATION AND RESEARCH, priority 2021, published 2026).

Tests used:
Assay in all cases: Chemokine glycan microarray binding assay
Details in all cases: maximum RFU set as 100% binding, average across 2 glycan concentrations and 3 chemokine dilutions (n=6)
CCL13 = CCL13 (Homo sapiens, UniProt Q99616)
Experimental: (§1) Microarray Studies: The compounds of the present invention were covalently immobilized on epoxy group collated glass slides. Slides were rehydrated with dH2O and incubated for 30 min in a staining dish with 50° C. prewarmed ethanolamine (0.05 M) in Tris-HCl (0.1 M, pH 9.0) to block the remaining reactive epoxy groups on the slide surface, then washed with 50° C. prewarmed dH2O. Slides were centrifuged at 200 g for 3 min, then fitted with the ProPlate Multi-Array 16-well slide module (Grace Bio-lab P37001) to divide into the subarrays (blocks). Slides were washed with PBST (0.1% Tween 20), aspirated, and blocked with 200 μL/subarray of blocking buffer (PBS pH 7.3+1% w/v ovalbumin) for 1 h at RT with gentle shaking. Next, the blocking solution was aspirated and 100 μL/block of primary chemokines diluted in PBS pH 7.3+1% w/v ovalbumin were incubated with gentle shaking for 2 hours at RT. Slides were washed 4 times with PBST, then with PBS (without Tween-20) for 2 min. Bound antibodies were detected by incubating with biotinylated secondary detections (1 ng/μL) diluted in PBS, 200 μL/block at RT for 1 h. Slides were washed 4 times with PBST, then with PBS (without Tween-20) for 2 min and biotinylated antibodies were detected with Cy3-SA ([…]). Slides were washed 4 times with PBST, then with PBS for 10 min followed by removal from the ProPlate Multi-Array slide module and immediately dipping in a staining dish with dH2O for 10 min with shaking. The slides were then centrifuged at 200 g for 3 min, and the dry slides immediately scanned. Binding was tested at three serial dilutions, then detected with the relevant biotinylated secondary antibody (1 μg/mL) followed by Cy3-strepavidin (1.5 μg/mL). Arrays were scanned and RFUs were calculated of chemokines binding to 100 μM glycans printed at four replicates. Rank binding of chemokines (each at three dilutions) to glycans printed at four replicates each was calculated and summarized in Table 1. For each binding assay per printed block, the maximum RFU was determined and set as 100% binding. Then, binding to all other glycans in the same block was ranked in comparison to the maximal binding, and average rank binding (and SEM) for each glycan across the three examined concentrations of each chemokine was calculated. This analysis allowed to compare the glycan-binding profiles of the different chemokines and dissect their binding preferences.
(§2) Table 1. Chemokine glycan microarray binding assay. Binding was tested at 3 serial dilutions, then detected with the relevant biotinylated secondary antibody (1 μg/ml) followed by Cy3-Strepavidin (1.5 μg/ml) (Table SX). Arrays were scanned, relative fluorescent units (RFU) obtained, and maximum RFU determined and set as 100% binding. Then rank binding (per printed glycan per concentration, per each chemokine dilution, per printed block) was determined. Since each glycans was printed at 2 concentration, 100% binding was set separately for each concentration. Then, binding to all the other glycans at the same concentration was ranked in comparison to the maximal binding, and the average rank binding and SEM for each glycan across the two glycan concentrations and three examined dilutions of each chemokine was calculated (n=6, 2 glycan concentrations across 3 chemokine dilutions). This analysis allowed to compare the glycan binding profiles of the different chemokines and dissect their binding preferences. The mean rank is shown as a heatmap of all the examined binding assays together (red highest, blue lowest and white 50th percentile of ranking).

CCL2 = CCL2 (Homo sapiens, UniProt P13500)
Experimental: as §1, §2

CCL21 = biological target: T1, CCL21 (Homo sapiens, UniProt O00585)
T1 sequence (O00585 24-134): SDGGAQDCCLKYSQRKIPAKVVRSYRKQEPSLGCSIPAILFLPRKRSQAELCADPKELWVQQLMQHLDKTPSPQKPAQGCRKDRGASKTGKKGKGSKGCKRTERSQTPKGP
Experimental: as §1, §2

CCL28 = biological target: T2, CCL28 (Homo sapiens, UniProt Q9NRJ3)
T2 sequence (Q9NRJ3 20-127): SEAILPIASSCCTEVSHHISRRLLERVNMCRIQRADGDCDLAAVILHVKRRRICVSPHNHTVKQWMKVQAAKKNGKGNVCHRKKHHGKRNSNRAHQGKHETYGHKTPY
Experimental: as §1, §2

CCL5 = biological target: T3, CCL5 (Homo sapiens, UniProt P13501)
T3 sequence (P13501 24-91): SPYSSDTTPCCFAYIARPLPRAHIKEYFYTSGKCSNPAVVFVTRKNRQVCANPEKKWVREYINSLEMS
Experimental: as §1, §2

CCL7 = CCL7 (Homo sapiens, UniProt P80098)
Experimental: as §1, §2

CXCL10 = biological target: T4, CXCL10 (Homo sapiens, UniProt P02778)
T4 sequence (P02778 22-98): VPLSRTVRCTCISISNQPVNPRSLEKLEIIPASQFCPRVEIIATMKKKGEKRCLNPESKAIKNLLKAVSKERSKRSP
Experimental: as §1, §2

CXCL12 = CXCL12 (Homo sapiens, UniProt P48061)
Experimental: as §1, §2

CXCL8 = biological target: T5, CXCL8 (Homo sapiens, UniProt P10145)
T5 sequence (P10145 21-99): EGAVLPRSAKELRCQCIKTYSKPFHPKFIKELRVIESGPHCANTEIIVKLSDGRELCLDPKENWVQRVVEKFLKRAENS
Experimental: as §1, §2

Sequence of CCL2 (P13500 24-99, species assumed): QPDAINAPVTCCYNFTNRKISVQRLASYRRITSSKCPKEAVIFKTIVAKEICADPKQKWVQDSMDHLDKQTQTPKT
Sequence of CXCL12 (P48061 22-93, species assumed): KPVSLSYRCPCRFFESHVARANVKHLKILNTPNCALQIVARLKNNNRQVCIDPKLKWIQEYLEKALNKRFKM
Sequence of CCL13 (Q99616 17-98, species assumed): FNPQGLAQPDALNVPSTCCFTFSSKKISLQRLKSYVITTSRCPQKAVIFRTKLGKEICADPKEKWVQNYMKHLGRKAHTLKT
Sequence of CCL7 (P80098 24-99, species assumed): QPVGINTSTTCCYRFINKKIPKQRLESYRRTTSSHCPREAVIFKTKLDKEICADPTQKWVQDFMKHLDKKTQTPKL

mean rank binding to CCL13 (CCL13)	mean rank binding to CCL2 (CCL2)	mean rank binding to CCL21 (CCL21)	mean rank binding to CCL28 (CCL28)	mean rank binding to CCL5 (CCL5)	mean rank binding to CCL7 (CCL7)	mean rank binding to CXCL10 (CXCL10)	mean rank binding to CXCL12 (CXCL12)	mean rank binding to CXCL8 (CXCL8)	SMILES
87%	2%	78%	78%	14%	56%	55%	59%	29%	CC(=O)N[C@H]1[C@@H](O[C@H]2[C@H](O)[C@@H](OP(=O)(O)O)[C@H](OCCCN)O[C@H]2C(=O)O)O[C@H](COP(=O)(O)O)[C@@H](O[C@@H]2O[C@@H](C(=O)O)[C@@H](O[C@H]3O[C@H](COP(=O)(O)O)[C@@H](O)[C@H](O)[C@H]3NC(C)=O)[C@H](O)[C@H]2OP(=O)(O)O)[C@@H]1O [Example 21, 3-Aminopropyl-O-[(2-acetamido-6-O-phosphonato-2-deoxy-α-D-glucopyranosyl)-(1→4)-O-(2-O-phosphonato-α-L-idopyranosyluronate)-(1→4)-O-(2-acetamido-6-O-phosphonato-2-deoxy-α-D-glucopyranosyl)]-(1→4)-O-2-O-phosphonato-α-L-idopyranosiduronate]
21%	0%	23%	21%	1%	1%	11%	11%	2%	CC(=O)NC1C(O)[C@H](O)C(CO)O[C@@H]1O[C@@H]1C(C(=O)O)O[C@@H](O[C@@H]2C(CO)O[C@H](O[C@@H]3C(C(=O)O)O[C@@H](OCCCN)C(OS(=O)(=O)O)C3O)C(NC(C)=O)C2O)C(OS(=O)(=O)O)C1O (stereo partly drawn) [Example 14, 3-Aminopropyl-O-[(2-acetamido-2-deoxy-α-D-glucopyranosyl)-(1→4)-O-(2-O-sulfonato-α-L-idopyranosyluronate)-(1→4)-O-(2-acetamido-2-deoxy-α-D-glucopyranosyl)]-(1→4)-O-2-O-sulfonato-α-L-idopyranosiduronate]
86%	36%	83%	80%	30%	75%	78%	92%	63%	NCCOCCO[C@@H]1OC(C(=O)O)[C@@H](O[C@@H]2OC(C(=O)O)[C@@H](O[C@@H]3OC(C(=O)O)[C@@H](O)C(O)C3O)C(O)C2O)C(O)C1O (stereo partly drawn) [Example 7, Ethoxy-2-aminoethoxyl-O-(α-L-idopyranosyl Uronic Acid-α(1→4)-α-L-idopyranosyl Uronic Acid-α(1→4))-α-L-idopyranoside Uronic Acid]
79%	30%	71%	66%	54%	86%	64%	69%	53%	CC(=O)NC1C(O)[C@H](O)C(COS(=O)(=O)O)O[C@@H]1O[C@@H]1C(C(=O)O)O[C@@H](O[C@@H]2C(COS(=O)(=O)O)O[C@H](O[C@@H]3C(C(=O)O)O[C@@H](OCCCN)C(OS(=O)(=O)O)C3O)C(NC(C)=O)C2O)C(OS(=O)(=O)O)C1O (stereo partly drawn) [Example 20, 3-Aminopropyl-O-[(2-acetamido-6-O-sulfonato-2-deoxy-α-D-glucopyranosyl)-(1→4)-O-(2-O-sulfonato-α-L-idopyranosyluronate)-(1→4)-O-(2-acetamido-6-O-sulfonato-2-deoxy-α-D-glucopyranosyl)]-(1→4)-O-2-O-sulfonato-α-L-idopyranosiduronate]
64%	3%	62%	36%	3%	45%	39%	51%	13%	NCCCO[C@@H]1OC(C(=O)O)[C@@H](O[C@H]2OC(CO)[C@@H](O[C@@H]3OC(C(=O)O)[C@@H](O[C@H]4OC(CO)[C@@H](O)C(O)C4N)C(O)C3O)C(O)C2N)C(O)C1O (stereo partly drawn) [Example 15, 3-Aminopropyl-O-[(2-amino-2-deoxy-α-D-glucopyranosyl)-(1→4)-O-(α-L-idopyranosyluronate)-(1→4)-O-(2-amino-2-deoxy-α-D-glucopyranosyl)]-(1→4)-O-α-L-idopyranosiduronate]
64%	1%	48%	66%	4%	35%	27%	45%	9%	NCCCO[C@@H]1O[C@@H](C(=O)O)[C@@H](O[C@H]2O[C@H](CO)[C@@H](O[C@@H]3O[C@@H](C(=O)O)[C@@H](O[C@H]4O[C@H](CO)[C@@H](O)[C@H](OS(=O)(=O)O)[C@H]4N)[C@H](O)[C@H]3OS(=O)(=O)O)[C@H](OS(=O)(=O)O)[C@H]2N)[C@H](O)[C@H]1OS(=O)(=O)O [Example 18, 3-Aminopropyl-O-[(2-amino-3-O-sulfonato-2-deoxy-α-D-glucopyranosyl)-(1→4)-O-(2-O-sulfonato-α-L-idopyranosyluronate)-(1→4)-O-(2-amino-3-O-sulfonato-2-deoxy-α-D-glucopyranosyl)]-(1→4)-O-2-O-sulfonato-α-L-idopyranosiduronate]
72%	0%	60%	54%	10%	12%	23%	45%	13%	NCCOCCO[C@@H]1O[C@@H](C(=O)O)[C@@H](O[C@@H]2O[C@@H](C(=O)O)[C@@H](O[C@@H]3O[C@@H](C(=O)O)[C@@H](OS(=O)(=O)O)[C@H](O)[C@H]3O)[C@H](O)[C@H]2O)[C@H](O)[C@H]1O [Example 8, Ethoxy-2-aminoethoxyl-O-((4-O-sulfonato)-α-L-idopyranosyl Uronic Acid-α(1→4)-L-idopyranosyl Uronic Acid-α(1→4))-α-L-idopyranoside Uronic Acid]
